Laboratory results published in ChEMBL document CHEMBL6092165, “Discovery of sp3-rich diazatricycloundecanes as lysosomotropic autophagy inhibitors” (Eur J Med Chem, 2024).
Activity calls are given as the source filed them. The rule behind the calls is not given here.

Tests used:
[1] = tested on: HeLa; assay: Antiproliferative activity against human HeLa cells assessed as inhibition of cell growth incubated for 72 hrs by MTT assay; assay type: functional, cell-based
[2] = Induction of autophagic flux in human HeLa cells overexpressing EGFP-LC3 assessed as fold increase in GFP-tagged LC3-II protein expression at 10 uM incubated for 24 hrs by Western blotting analysis (reference value: 1); assay type: functional
[3] = tested on: HeLa; assay: Induction of autophagic flux in human HeLa cells overexpressing EGFP-LC3 assessed as increase in GFP-tagged LC3-II protein expression at 10 uM incubated for 24 hrs by Western blotting analysis; assay type: functional, cell-based
[4] = tested on: Lysosomal membrane; assay: Disruption of lysosomal membrane in human HT-1080 cells assessed as downregulation of cathepsin B expression at 20 uM incubated for 12 hrs by Western blotting analysis; assay type: subcellular
[5] = tested on: Lysosomal membrane; assay: Disruption of lysosomal membrane in human HT-1080 cells assessed as downregulation of cathepsin B expression at 5 uM incubated for 12 hrs by Western blotting analysis; assay type: subcellular
[6] = tested on: HeLa; assay: Induction of autophagy in human HeLa cells overexpressing EGFP-LC3 assessed as increase in LC3-II puncta formation at 10 uM incubated for 24 hrs in presence of rapamycin by Hoechst staining based immunofluorescence analysis; assay type: functional, cell-based
[7] = tested on: Lysosomal membrane; assay: Disruption of lysosomal membrane in human HT-1080 cells assessed as downregulation of cathepsin B expression at 20 uM by Western blotting analysis; assay type: subcellular
[8] = Induction of autophagic flux in human HeLa cells overexpressing EGFP-LC3 assessed as fold increase in GFP-tagged LC3-II protein expression at 1 uM incubated for 24 hrs by Western blotting analysis (reference value: 1); assay type: functional
[9] = tested on: Lysosomal membrane; assay: Disruption of lysosomal membrane in human HT-1080 cells assessed as downregulation of cathepsin B expression incubated for 24 hrs by Western blotting analysis; assay type: subcellular
[10] = tested on: Lysosomal membrane; assay: Induction of lysosomal membrane permeabilization in human HeLa cells assessed as increase fluorescence intensity at 10 uM incubated for 24 hrs in presence of bafilomycin A1 by LysoTracker Red DND-99 dye based confocal laser microscopic analysis; assay type: subcellular
[11] = tested on: HT-1080; assay: Induction of autophagic flux in human HT-1080 cells assessed as increase in LC3-II protein expression at 10 uM incubated for 24 hrs by Western blotting analysis; assay type: functional, cell-based
[12] = Induction of autophagic flux in human HeLa cells overexpressing EGFP-LC3 assessed as fold increase in GFP-tagged LC3-II protein expression at 3 uM incubated for 24 hrs by Western blotting analysis (reference value: 1); assay type: functional
[13] = tested on: HeLa; assay: Induction of autophagy in human HeLa cells overexpressing EGFP-LC3 assessed as increase in LC3-II puncta formation at 10 uM incubated for 24 hrs in presence of chloroquine by Hoechst staining based immunofluorescence analysis; assay type: functional, cell-based
[14] = tested on: HT-1080; assay: Antiproliferative activity against human HT-1080 cells assessed as inhibition of cell growth incubated for 72 hrs by MTT assay; assay type: functional, cell-based
[15] = tested on: Lysosomal membrane; assay: Induction of lysosomal membrane permeabilization in human HeLa cells assessed as increase fluorescence intensity at 10 uM incubated for 24 hrs in presence of chloroquine by LysoTracker Red DND-99 dye based confocal laser microscopic analysis; assay type: subcellular

Row | Structure (SMILES) | IC50 [1] | fold change (FC) [2] | further results
1 | CCCCCCNC(=O)/C=C1/CN2C3CC(OC(=O)C(C)C)C1C2CN(Cc1ccccc1)C3 (configuration not stated) | 12.5 µM | 3 | –
2 | CC(=O)OC1CC2CN(Cc3ccccc3)CC3C1[C@@H](CC(=O)NCc1ccccc1)CN23 (some centres not stated) | 78.4 µM | 3.5 | –
3 | CC(C)CNC(=O)C[C@H]1CN2C3CC(OC(=O)CC(C)C)C1C2CN(Cc1ccccc1)C3 (some centres not stated) | 15.7 µM | 1.7 | –
4 | CCCCCCNC(=O)/C=C1/CN2C3CNCC2C1C(OC(=O)C(C)C)C3 (configuration not stated) | > 100 µM | 1.3 | –
5 | CCCCCCNC(=O)/C=C1/CN2C3CC(OC(=O)C(C)C)C1C2CN(C(=O)OCc1ccccc1)C3 (configuration not stated) | 23.1 µM | 1.3 | –
6 | CCOC(=O)C[C@H]1CN2C3CNCC2C1C(=O)C3 (some centres not stated) | > 100 µM | – | Activity [3]: inactive
7 | CCN(CC)CCCC(C)Nc1ccnc2cc(Cl)ccc12 (configuration not stated) [CHLOROQUINE] | 43.1 µM | 2 | Activity [4]: Active
8 | CCCCCCNC(=O)/C=C1/CN2C3CC(OC(=O)C(C)C)C1C2CN(C)C3 (configuration not stated) | > 100 µM | 2.1 | –
9 | CCCCCCNC(=O)/C=C1/CN2C3CC(OC(=O)C(C)C)C1C2CN(C(=O)c1ccccc1)C3 (configuration not stated) | > 100 µM | 1.3 | –
10 | CNC(=O)C[C@H]1CN2C3CC(OC(=O)C(C)C)C1C2CN(Cc1ccccc1)C3 (some centres not stated) | > 100 µM | 1.9 | –
11 | CO/C1=C\C(C)=C\[C@@H](C)[C@@H](O)[C@@H](C)C/C(C)=C/C=C/[C@H](OC)[C@@H]([C@@H](C)[C@@H](O)[C@H](C)[C@@]2(O)C[C@@H](O)[C@H](C)[C@@H](C(C)C)O2)OC1=O | – | – | Activity [5]: Active
12 | CC(C)CNC(=O)C[C@H]1CN2C3CC(OC(=O)Cc4ccccc4)C1C2CN(CC(C)C)C3 (some centres not stated) | > 100 µM | 1.3 | –
13 | CC(C)NC(=O)C[C@H]1CN2C3CC(OC(=O)C(C)C)C1C2CN(Cc1ccccc1)C3 (some centres not stated) | > 100 µM | 1.8 | –
14 | CC(C)C(=O)OC1CC2CN(Cc3ccccc3)CC3C1[C@@H](CC(=O)NCc1ccccc1)CN23 (some centres not stated) | 19.3 µM | 1.9 | –
15 | CC(C)CC(=O)OC1CC2CN(CC(C)C)CC3C1[C@@H](CC(=O)NCc1ccccc1)CN23 (some centres not stated) | 34.2 µM | 2.5 | –
16 | CCOC(=O)C[C@H]1CN2C3CC(=O)C1C2CN(Cc1ccccc1)C3 (some centres not stated) | > 100 µM | – | Activity [3]: inactive
17 | CCCCCCCCCCCCCCCC(=O)OC1CC2CN(Cc3ccccc3)CC3C1[C@@H](CC(=O)NCc1ccccc1)CN23 (some centres not stated) | 5.5 µM | 1.1 | –

Row | Structure (SMILES) | IC50 [1] | fold change (FC) [2] | further results
18 | O=C(C[C@H]1CN2C3CC(O)C1C2CN(Cc1ccccc1)C3)NCc1ccccc1 (some centres not stated) | > 100 µM | – | Activity [3]: inactive
19 | CC(C)CCC(=O)OC1CC2CN(Cc3ccccc3)CC3C1[C@@H](CC(=O)NCc1ccccc1)CN23 (some centres not stated) | 6.2 µM | 3.7 | –
20 | CC(C)CC(=O)OC1CC2CN(Cc3ccccc3)CC3C1[C@@H](CC(=O)NCc1ccccc1)CN23 (some centres not stated) | 10 µM | 3 | –
21 | O=C(C[C@H]1CN2C3CC(OC(=O)C4CCCCC4)C1C2CN(Cc1ccccc1)C3)NCc1ccccc1 (some centres not stated) | 5.2 µM | 3.7 | –
22 | O=C(C[C@H]1CN2C3CC(OC(=O)C4CC4)C1C2CN(Cc1ccccc1)C3)NCc1ccccc1 (some centres not stated) | 18 µM | 5.7 | –
23 | CC(C)(C)C(=O)OC1CC2CN(Cc3ccccc3)CC3C1[C@@H](CC(=O)NCc1ccccc1)CN23 (some centres not stated) | 5.6 µM | 3.8 | –
24 | CC(C)CN1CC2CC(OC(=O)Cc3ccccc3)C3C(C1)N2C[C@@H]3CC(=O)NCc1ccccc1 (some centres not stated) | 94.2 µM | 1.8 | –
25 | CC(C)CNC(=O)C[C@H]1CN2C3CC(OC(=O)CC(C)C)C1C2CN(CC(C)C)C3 (some centres not stated) | > 100 µM | 1.2 | –
26 | CCCCCCNC(=O)C[C@H]1CN2C3CC(OC(=O)C(C)C)C1C2CN(Cc1ccccc1)C3 (some centres not stated) | 10.1 µM | 2.4 | Activity [6]: Active; Compared To Compound Alone Or Rapamycin Alone Treatment; Activity [7]: Time-dependent-effect; fold change (FC) [8]: 1.3; Activity [9]: Dose-dependent-effect; Activity [10]: inactive; Activity [11]: Active; fold change (FC) [12]: 2.6; Activity [13]: Not active; Compared To Compound Alone Or Chloroquine Alone Treatment; Mechanism Of Action Similar To Chloroquine; Activity [14]: Active; Activity [15]: Active; Compound Observed To Enlarge Lysosome And Increase Lysosomal Ph Similar To Chloroquine
27 | CC(C)C(=O)OC1CC2CN(Cc3ccccc3)CC3C1[C@@H](CC(=O)NCC1CCCCC1)CN23 (some centres not stated) | 15.5 µM | 2.4 | fold change (FC) [8]: 2; fold change (FC) [12]: 2.1
28 | CC(C)C(=O)OC1CC2CN(CC3CCCCC3)CC3C1[C@@H](CC(=O)NCC1CCCCC1)CN23 (some centres not stated) | 6 µM | 2.9 | fold change (FC) [8]: 1.4; fold change (FC) [12]: 3.7
29 | O=C(C[C@H]1CN2C3CC(=O)C1C2CN(Cc1ccccc1)C3)NCc1ccccc1 (some centres not stated) | > 100 µM | – | Activity [3]: inactive
30 | CCCCC(=O)OC1CC2CN(Cc3ccccc3)CC3C1[C@@H](CC(=O)NCc1ccccc1)CN23 (some centres not stated) | 6.7 µM | 5.4 | –
31 | O=C(C[C@H]1CN2C3CC(OC(=O)C4CCCCCC4)C1C2CN(Cc1ccccc1)C3)NCc1ccccc1 (some centres not stated) | 5.1 µM | 2.2 | –
32 | CC(C)CNC(=O)C[C@H]1CN2C3CC(OC(=O)Cc4ccccc4)C1C2CN(Cc1ccccc1)C3 (some centres not stated) | 47.9 µM | 1.6 | –
33 | C#CCCCC(=O)OC1CC2CN(Cc3ccccc3)CC3C1[C@@H](CC(=O)NCc1ccccc1)CN23 (some centres not stated) | 15.7 µM | 4.3 | –
34 | O=C(C[C@H]1CN2C3CC(OC(=O)Cc4ccccc4)C1C2CN(Cc1ccccc1)C3)NCc1ccccc1 (some centres not stated) | 14.8 µM | 2 | –
